Data published in US20200369629A1, “BENZAMIDE COMPOUNDS AND THEIR USE AS HERBICIDES” (BASF SE, priority 2017, published 2020).

Tests used:
Type in all cases: in vivo
[1] = system: ECHCG (Echinocloa crus-galli); assay: Greenhouse post-emergence test, test series 1, ECHCG; conditions: Echinochloa crus-galli, application rate 62.5 g/ha, scale 0 to 100 (100 = complete destruction, 0 = no damage)
Source text: (§1) The seeds of the test plants were sown separately for each species. For the pre-emergence treatment, the active ingredients, which had been suspended or emulsified in water, were applied directly after sowing by means of finely distributing nozzles. The containers were irrigated gently to promote germination and growth and subsequently covered with transparent plastic hoods until the plants had rooted. This cover caused uniform germination of the test plants, unless this had been impaired by the active ingredients. For the post-emergence treatment, the test plants were first grown to a height of 3 to 15 cm, depending on the plant habit, and only then treated with the active ingredients which had been suspended or emulsified in water. For this purpose, the test plants were either sown directly and grown in the same containers, or they were first grown separately as seedlings and transplanted into the test containers a few days prior to treatment. Depending on the species, the plants were kept at 10-25° C. or 20-25° C., respectively. The test period extended over 2 to 4 weeks. During this time, the plants were tended, and their response to the individual treatments was evaluated. Evaluation was carried out using a scale from 0 to 100. 100 means no emergence of the plants, or complete destruction of at least the aerial moieties, and 0 means no damage, or normal course of growth. A good herbicidal activity is given at values of at least 70 and a very good herbicidal activity is given at values of at least 85. Test Series 1: At an application rate of 62.5 g/ha the following compounds were tested in post-emergence tests against: ECHCG (Echinocloa crus-galli)

[2] = system: CHEAL (Chenopodium album); assay: Greenhouse post-emergence test, test series 1, CHEAL; conditions: application rate 62.5 g/ha, scale 0 to 100 (100 = complete destruction, 0 = no damage)
Source text: as §1, with “CHEAL (Chenopodium album)” for “ECHCG (Echinocloa crus-galli)”

[3] = system: AMARE (Amaranthus retroflexus); assay: Greenhouse post-emergence test, test series 1, AMARE; conditions: application rate 62.5 g/ha, scale 0 to 100 (100 = complete destruction, 0 = no damage)
Source text: as §1, with “AMARE (Amaranthus retroflexus)” for “ECHCG (Echinocloa crus-galli)”

Measured: pest or weed control at 62.5 g/ha

Cc1c(NC(=O)N(C)CC(F)(F)F)c(Br)cc(F)c1C(=O)Nc1nnnn1C [Example 1, 4-bromo-6-fluoro-2-methyl-N-(1-methyltetrazol-5-yl)-3-[[methyl(2,2,2-trifluoroethyl)carbamoyl]amino]benzamide]
> 85%: all assays above

CCN(CC(F)(F)F)C(=O)Nc1c(Br)cc(F)c(C(=O)Nc2nnnn2C)c1C [Example 2, 4-bromo-6-fluoro-2-methyl-N-(1-methyltetrazol-5-yl)-3-[[ethyl(2,2,2-trifluoroethyl)carbamoyl]amino]benzamide]
> 85%: all assays above

Cc1c(NC(=O)N(CC(F)(F)F)CC(F)(F)F)c(Br)cc(F)c1C(=O)Nc1nnnn1C [Example 3]
> 85%: all assays above

Cc1c(NC(=O)N(CC(F)(F)F)C2CC2)c(Br)cc(F)c1C(=O)Nc1nnnn1C [Example 6]
> 85%: all assays above

Cn1nnnc1NC(=O)c1c(F)cc(Cl)c(NC(=O)N(CC(F)(F)F)C2CC2)c1Cl [Example 7]
> 85%: all assays above

CCN(CC(F)(F)F)C(=O)Nc1c(Cl)cc(F)c(C(=O)Nc2nnnn2C)c1Cl [Example 8]
> 85%: all assays above

CN(CC(F)(F)F)C(=O)Nc1c(Cl)cc(F)c(C(=O)Nc2nnnn2C)c1Cl [Example 9, 2,4-dichloro-6-fluoro-N-(1-methyltetrazol-5-yl)-3-[[methyl(2,2,2-trifluoroethyl)carbamoyl]amino]benzamide]
> 85%: all assays above

CN(CC(F)(F)F)C(=O)Nc1c(C(F)(F)F)cc(F)c(C(=O)Nc2nnnn2C)c1Cl [Example 10]
> 85%: all assays above

Cc1c(NC(=O)N(C)CC(F)(F)F)c(Cl)cc(F)c1C(=O)Nc1nnnn1C [Example 12]
> 85%: all assays above

Cc1c(NC(=O)N(CC(F)(F)F)C(C)C)c(Cl)cc(F)c1C(=O)Nc1nnnn1C [Example 13]
> 85%: all assays above

CC(C)N(CC(F)(F)F)C(=O)Nc1c(C(F)(F)F)cc(F)c(C(=O)Nc2nnnn2C)c1Cl [Example 14]
> 85%: all assays above

CCN(CC(F)(F)F)C(=O)Nc1c(Cl)cc(F)c(C(=O)Nc2nnnn2C)c1C [Example 18]
> 85%: all assays above

Cc1c(NC(=O)N(CC(F)(F)F)CC(F)(F)F)c(Cl)cc(F)c1C(=O)Nc1nnnn1C [Example 19]
> 85%: all assays above

CC(C)N(CC(F)(F)F)C(=O)Nc1c(Cl)cc(F)c(C(=O)Nc2nnnn2C)c1Cl [Example 20]
> 85%: all assays above

Cc1c(NC(=O)N(CC(F)(F)F)C2CC2)c(Cl)cc(F)c1C(=O)Nc1nnnn1C [Example 21]
> 85%: all assays above

Cn1nnnc1NC(=O)c1c(F)cc(C(F)(F)F)c(NC(=O)N(CC(F)(F)F)CC(F)(F)F)c1Cl [Example 22]
> 85%: all assays above
